# Experimental data reported in PubChem BioAssay AID1996.
# Conditions: buffer; pH 7.4; 200.0 µM
row,SMILES,solubility kinetic [µg/mL]
1,COCC(C)n1c(SCC(=O)Nc2c(C)n(C)n(-c3ccccc3)c2=O)nc2ccccc2c1=O (centres undefined),> 74
2,O=C1Nc2ccccc2C1Cc1ccccn1 (centres undefined),> 33.6
3,O=C(O)c1cc([N+](=O)[O-])c(Sc2nc3ccccc3[nH]2)c([N+](=O)[O-])c1,> 54
4,O=C1CCN(Cc2ccccc2)C(=O)N1c1ccccc1,> 42
5,O=c1c(-c2ccco2)[n+]([O-])c2ccccc2n1OCc1c(F)cccc1F,3
6,COCCNC(=S)NCc1cccs1,31.9
7,COc1ccc(S(=O)(=O)NC2CC3CCC2C3)cc1 (centres undefined),36.5
8,CC(C)(C)c1ccc(CCC2OCC(CN3CCOCC3)O2)cc1 (centres undefined),40
9,Cc1c(Cl)cccc1NC(=O)c1cccnc1,> 37
10,Cc1cc(C)cc(NC(=O)N2c3ccccc3NC(=O)CC2C)c1 (centres undefined),46.8
11,CC(=O)NO,< 0.2
12,Cc1ccc(C(=O)NC(=S)N2CCN(C)CC2)cc1Br,47.4
13,O=[N+]([O-])c1ccc2c(c1)[nH]c(=S)n2-c1ccccc1,2
14,Cc1ccc(NS(=O)(=O)c2ccc(Cl)nc2)c(C)c1,> 44.5
15,O=C(CSc1cc(Cl)ccc1Cl)NCCN1C(=O)CSC1=O,> 56.9
16,COc1ccc(-c2cc(-c3ccccc3)nc(Cl)n2)cc1OC,< 0.3
17,O=[N+]([O-])c1cccc(CN2CCN(c3cccc4[nH]ccc34)CC2)c1,44
18,Cn1c(=O)c2ccccc2n(Cc2cccc(F)c2)c1=O,3.6
19,O=C(c1[nH]ncc1[N+](=O)[O-])N1CCOCC1,> 33.9
20,O=C1C(Cl)=C(N2CCCCCC2)C(=O)N1c1ccc(Br)cc1,15.1
21,Cc1cccc(NS(=O)(=O)c2ccc3c(c2)CCC(=O)N3)c1,> 47.5

row,SMILES,solubility kinetic [µg/mL]
1,CN(C)c1nc2ncn(Cc3ccccc3)c2c(=O)[nH]1,> 40.4
2,COc1ccc(CCNCc2ccccc2)cc1.O=C(O)C(=O)O,> 49.7
3,O=[N+]([O-])c1ccc(NCc2ccc3c(c2)OCO3)cc1,< 0.3
4,O=C(O)/C=C/C(=O)c1c(-c2ccccc2)[nH]c2ccccc12,> 43.7
5,Cc1ccc(S(=O)(=O)N[C@@H](Cc2ccccc2)C(=O)CCl)cc1,> 52.8
6,COc1ccc(CCNC(=O)C2CC(=O)N(c3ccc(C)cc3)C2)cc1 (centres undefined),2.5
7,CCN(CC(=O)Nc1ccccc1OC)C(=O)CCc1ccccc1,46
8,COc1ccc(S(=O)(=O)n2cccc2)cc1OC,11.8
9,CN(CC(=O)Nc1cccc(F)c1)C(=O)CC1CC2CCC1C2 (centres undefined),4
10,CCCCCCCC(=O)NC1=NC(=O)C(C)(C)S1,5
11,O=C(Cc1c(F)cccc1Cl)Nc1cc(S(=O)(=O)N2CCOCC2)ccc1N1CCCC1,2
12,CCOC(=O)c1sc(NC(=O)CN2CCN(c3ccc(OC)cc3)CC2)nc1C,15.3
13,O=C(Nc1cnccn1)c1ccc(F)cc1Cl,> 37.7
14,Cc1cccc(NC(=O)CN2CCCCCC2)c1,25.8
15,Cc1ccccc1OCC(=O)O/N=C(\N)c1ccncc1,28.7
16,O=[N+]([O-])c1ccc(N2CCN(c3cccc(Cl)c3)CC2)cn1,2.6
17,Cn1cnnc1SCC(=O)NC1CC1,> 31.8
18,NC(=O)CSc1ccc(F)cc1,> 27.8
19,CC(=O)Nc1cccc(OCCCNC(=O)c2cccc3ccccc23)c1,46.8
20,Cc1ccc(NC(=O)N2CCN(C(=O)C3CCCO3)CC2)cc1 (centres undefined),> 47.6
21,Cc1cc(C)cc(C(=O)Nc2nc3ccccc3[nH]2)c1,1.4

row,SMILES,solubility kinetic [µg/mL]
1,COc1cc(C(=O)N2CCN(C3CCCCC3)CC2)cc(OC)c1OC.O=C(O)C(=O)O,> 67.9
2,CCOc1ccc(C(=O)OCC(=O)N2CCCC2)cc1OCC,38.3
3,CCOc1ccccc1NC(=O)c1ccccc1NC(=O)c1ccco1,< 0.4
4,Cc1ccc(C(C)C)cc1S(=O)(=O)Nc1cccnc1,3.5
5,Cc1csc(SCC(=O)Nc2ccccc2C)n1,> 41.8
6,C=CCC1(Nc2ccccc2)CC(C)N(C)CC1C.O=C(O)C(=O)O (centres undefined),> 52.3
7,Nc1c(C(=O)O)sc2nc(-c3ccccc3)cc(-c3ccc(F)cc3)c12,51.3
8,O=C(Nc1ccccc1Cl)c1cccc(NC(=O)C2CCCC2)c1,26.9
9,Cc1ccc(F)cc1NC(=O)CCOc1ccccc1,8.3
10,CC(=O)N1CCN(Cc2nc3ccc(Cl)cc3n2CCO)CC1,> 50.5
11,Cc1cc(C)c(NC(=O)Nc2ccc3c(c2)OCO3)c(C)c1,0.6
12,Cc1cccc(NC(=S)NC2CCSc3ccccc32)c1 (centres undefined),< 0.3
13,CCOc1ccc(NC(=O)N(CCN(C)C)C(C)c2cccnc2)cc1 (centres undefined),> 53.5
14,COc1ccc(C(=O)CCC(C)(C)[N+](=O)[O-])cc1OC,> 42.2
15,CSc1cccc(NC(=O)c2[nH]c(C)c(C(C)=O)c2C)c1,7.3
16,CN(C)c1ccc(C(=O)/C=C/c2cccnc2)cc1,6.7
17,Cc1ccc(C(=O)NCC(=O)N2CCN(c3cccc(Cl)c3)CC2)s1,2.8
18,CCOC(=O)c1cc(S(=O)(=O)N2CCCC2)cn1C,22.4
19,CCNC(=O)C(=O)c1c(-c2ccccc2)[nH]c2ccccc12,> 43.9
20,COC(=O)c1sc(-c2ccc(Cl)cc2)cc1N,< 0.6
21,Cc1cc(C)c(C)c(S(=O)(=O)N[C@@H](C)C(=O)OCC(=O)NC2CCCC(C)C2C)c1C (some centres undefined),27.8

row,SMILES,solubility kinetic [µg/mL]
1,CCOC(=O)C1CCCN(C(=O)Nc2c(-c3ccccc3)noc2C)C1 (centres undefined),52.4
2,CC(C)Sc1nc(SCC(=O)O)c2c3c(sc2n1)COC(C)(C)C3,56.9
3,CCCN1C(=S)c2ccccc2C1c1ccccc1 (centres undefined),8.8
4,O=C(O)CCn1c(-c2ccccc2)cc2ccccc21,35.7
5,Cc1cccc(NCc2ccccc2)c1,0.8
6,O=C(C1COc2ccccc2O1)N1CCN(c2ccc(C(F)(F)F)cn2)CC1 (centres undefined),16.3
7,CCC(C)N(C(=O)CSc1nncn1C)C1CCS(=O)(=O)C1 (centres undefined),> 52
8,Cn1c([O-])c(Cc2cccc(Cl)c2Cl)c(=O)n(C)c1=O.[NH4+],43.6
9,Nc1nc(Nc2ccccc2)nc(NCc2ccccc2)c1[N+](=O)[O-],0.2
10,Oc1ccc(-c2cnc3ccccc3n2)cc1,26.9
11,O=C(CN1CCN(Cc2ccc3c(c2)OCO3)CC1)Nc1ccc2[nH]c(=O)[nH]c2c1,> 61.4
12,O=C(CS(=O)(=O)c1ccccc1)N1CCCCC1,> 40.1
13,Cl.NCCCCCc1nnc(SCC(N)=O)o1,> 42.1
14,CCOC(=O)COc1c(Cl)cc(/C=C2\N=C(C)OC2=O)cc1OC,46.5
15,O=C1CC(=O)N(c2ccccc2F)C(=O)N1,> 33.3
16,O=C(COC(=O)c1ccc(O)cc1)Nc1ccccc1[N+](=O)[O-],4.3
17,NCCNc1ccc([N+](=O)[O-])c2cccnc12,28.7
18,CCN(CC(=O)Nc1ccccc1OC)Cc1csc(CC(=O)Nc2ccc(C)cc2)n1,19
19,O=C(CCS(=O)(=O)c1ccccc1)Nc1ncc([N+](=O)[O-])s1,29.2
20,CC(=O)c1ccc(N2CCN(C(=O)Cc3cccs3)CC2)cc1,47.3
21,CCCC(=O)Nc1ccc2oc(-c3cncc(Br)c3)nc2c1,0.6
